1 compound from ChEMBL document CHEMBL5537136 (J Med Chem, 2024) can be followed below.

The source made the active and inactive calls. No cut-off for these calls is given here.

For series [1], the target named is Poly [ADP-ribose] polymerase 2 (Homo sapiens, UniProt Q9UGN5). The experiment in a line: Inhibition of PARP2 (unknown origin) measured after 1 hr incubation by microplate reader assay.
Series [2] concerns the target T1, Poly [ADP-ribose] polymerase tankyrase-2 (Homo sapiens, UniProt Q9H2K2).
T1 sequence (Q9H2K2 whole entry): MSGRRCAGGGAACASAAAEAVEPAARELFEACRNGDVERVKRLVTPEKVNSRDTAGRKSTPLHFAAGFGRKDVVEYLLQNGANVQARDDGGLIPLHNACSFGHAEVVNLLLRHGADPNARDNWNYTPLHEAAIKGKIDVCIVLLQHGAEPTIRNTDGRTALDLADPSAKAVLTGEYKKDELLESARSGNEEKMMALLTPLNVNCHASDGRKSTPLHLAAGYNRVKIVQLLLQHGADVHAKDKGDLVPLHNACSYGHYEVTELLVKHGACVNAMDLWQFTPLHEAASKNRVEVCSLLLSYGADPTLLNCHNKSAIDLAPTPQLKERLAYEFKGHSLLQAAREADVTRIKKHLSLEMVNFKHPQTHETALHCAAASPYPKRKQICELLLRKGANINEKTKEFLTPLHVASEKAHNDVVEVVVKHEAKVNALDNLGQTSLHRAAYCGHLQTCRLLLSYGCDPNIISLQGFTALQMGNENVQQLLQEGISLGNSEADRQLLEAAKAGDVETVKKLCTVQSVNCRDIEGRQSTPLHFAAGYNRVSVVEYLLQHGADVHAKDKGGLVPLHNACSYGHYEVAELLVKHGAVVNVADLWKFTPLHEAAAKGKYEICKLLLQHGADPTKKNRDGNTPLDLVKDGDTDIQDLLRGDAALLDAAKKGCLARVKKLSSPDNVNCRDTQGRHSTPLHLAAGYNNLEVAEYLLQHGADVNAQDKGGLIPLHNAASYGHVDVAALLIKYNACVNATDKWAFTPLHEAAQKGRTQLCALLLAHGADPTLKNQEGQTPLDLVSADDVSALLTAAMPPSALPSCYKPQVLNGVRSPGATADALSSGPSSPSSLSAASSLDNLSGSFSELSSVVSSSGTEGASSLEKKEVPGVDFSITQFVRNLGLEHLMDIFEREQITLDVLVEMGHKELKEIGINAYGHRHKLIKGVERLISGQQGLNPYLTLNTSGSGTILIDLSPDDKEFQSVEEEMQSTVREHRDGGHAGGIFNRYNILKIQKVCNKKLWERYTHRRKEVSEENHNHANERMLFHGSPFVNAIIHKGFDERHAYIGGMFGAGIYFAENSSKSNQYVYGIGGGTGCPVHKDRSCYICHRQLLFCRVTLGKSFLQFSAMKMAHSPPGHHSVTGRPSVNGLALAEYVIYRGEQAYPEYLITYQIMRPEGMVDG
The experiment in a line: Inhibition of TNKS2 (unknown origin) measured after 1 hr incubation by microplate reader assay.

Series [3] in a line: Antiproliferative activity against mouse AML12 cells measured after 6 days incubation by MTT assay. The series is classed as toxicity, cell-based.
Series [4] has as its system CT26. The experiment in a line: Induction of anti-tumor immunity in mouse CT26 cells assessed as increase in CXCL10 mRNA expression incubated for 2 days by quantitative real-time PCR analysis. The series is classed as functional, cell-based. The settings on record: dose 0.04-0.44 µM, time 2.0 day. (In general: Real-time PCR tracks product formation cycle by cycle.)
Series [5] addresses T2, Protein mono-ADP-ribosyltransferase TIPARP (Mus musculus) (UniProt Q8C1B2).
T2 sequence (whole entry): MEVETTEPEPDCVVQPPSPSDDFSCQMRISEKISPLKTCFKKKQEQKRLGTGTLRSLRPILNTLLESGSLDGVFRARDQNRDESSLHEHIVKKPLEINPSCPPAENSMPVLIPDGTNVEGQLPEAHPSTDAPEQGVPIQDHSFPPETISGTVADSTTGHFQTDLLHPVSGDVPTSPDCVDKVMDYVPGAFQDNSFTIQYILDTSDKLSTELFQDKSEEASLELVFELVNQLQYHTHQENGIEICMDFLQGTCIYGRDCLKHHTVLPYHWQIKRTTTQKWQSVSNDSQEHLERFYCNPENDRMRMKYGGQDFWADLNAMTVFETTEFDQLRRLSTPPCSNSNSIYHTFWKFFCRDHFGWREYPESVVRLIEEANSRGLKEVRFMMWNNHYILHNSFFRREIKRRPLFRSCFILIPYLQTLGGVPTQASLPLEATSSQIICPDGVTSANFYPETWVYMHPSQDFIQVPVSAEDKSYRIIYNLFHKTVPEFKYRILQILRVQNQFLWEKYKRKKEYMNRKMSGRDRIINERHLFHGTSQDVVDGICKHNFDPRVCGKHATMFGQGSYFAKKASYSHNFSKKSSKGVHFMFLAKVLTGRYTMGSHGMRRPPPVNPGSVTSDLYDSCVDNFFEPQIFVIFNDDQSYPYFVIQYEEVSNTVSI
The experiment in a line: Inhibition of PARP7 in mouse CT26 cells assessed as increase in TBK1 phosphorylation incubated for 3 days by Western blot analysis. In kind it is cell-based. The settings on record: dose 0.14-4 µM, time 3.0 day. Background: In western blotting, separated proteins are transferred to a membrane and probed.

Series [6] is described as follows: Permeability across basolateral to apical side in human Caco-2 cells. The series is classed as ADME, cell-based. (Caco-2 monolayers are a common model of the intestinal barrier.)
A short description of series [7]: Tmax in ICR mouse at 1 mg/kg, iv measured upto 24 hrs by LC-MS/MS analysis. The series is classed as ADME, organism-based. The settings on record: in vivo.
The nature of series [8]: Cmax in ICR mouse at 1 mg/kg, iv measured upto 24 hrs by LC-MS/MS analysis. In kind it is ADME, organism-based. The settings on record: in vivo.
Series [9] can be described thus: MRT (0 to infinity) in ICR mouse at 1 mg/kg, iv measured upto 24 hrs by LC-MS/MS analysis. In kind it is ADME, organism-based. To be noted: in vivo.
A short description of series [10]: Toxicity in Balb/c mouse bearing mouse CT26 cells assessed as body weight change at 6.25 to 25 mg/kg, IG measured after 14 days. The settings on record: in vivo, po, 336 h, dose 6.25-25 mg/kg, time 14 day. In kind it is organism-based.
Series [11] has as its system CT26. Kind of series: Antitumor activity against mouse CT26 cells implanted in Balb/c mouse assessed as increase in infiltration of CD3 positive CD4 positive T lymphocytes in tumors at 25 mg/kg, IG measured after 14 days by flow cytometry. The series is classed as functional, organism-based. The settings on record: time 14.0 day.
Series [12] concerns CT26. Kind of series: cells. To be noted: Mus musculus, CT26, 144 h.

Sequence of Poly [ADP-ribose] polymerase 2 (Q9UGN5 whole entry): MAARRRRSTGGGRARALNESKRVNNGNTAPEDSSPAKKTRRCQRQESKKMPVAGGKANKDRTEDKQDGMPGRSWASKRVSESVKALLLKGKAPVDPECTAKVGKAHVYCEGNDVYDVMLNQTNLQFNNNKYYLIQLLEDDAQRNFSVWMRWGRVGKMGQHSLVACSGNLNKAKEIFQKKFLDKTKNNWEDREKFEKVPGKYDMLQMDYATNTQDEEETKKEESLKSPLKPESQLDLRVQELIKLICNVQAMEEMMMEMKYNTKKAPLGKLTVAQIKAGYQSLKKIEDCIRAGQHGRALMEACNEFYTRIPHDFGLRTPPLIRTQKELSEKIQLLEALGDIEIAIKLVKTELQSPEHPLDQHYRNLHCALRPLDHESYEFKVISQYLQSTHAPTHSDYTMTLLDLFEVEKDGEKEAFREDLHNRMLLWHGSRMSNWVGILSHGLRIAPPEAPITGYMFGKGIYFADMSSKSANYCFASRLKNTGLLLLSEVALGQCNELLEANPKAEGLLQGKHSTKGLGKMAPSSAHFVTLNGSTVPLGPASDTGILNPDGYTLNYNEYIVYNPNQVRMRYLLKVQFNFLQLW

Consider `C[C@@H](C(=O)N1CCN(c2ncc(C(F)(F)F)cn2)CC1)n1cc2cccc(C(N)=O)c2n1`, for which the IC50 (as a rule, the midpoint of a concentration-inhibition curve) was 303 nM in [1], 694 nM in series [2] and 16200 nM in series [12]. In series [3], the IC50 at 6 days is greater than 50000 nM. Moreover, the Activity result in series [4] was “Dose-Dependent Effect”; in [10], “Non-Toxic”. Also, the inhibition entry in [5] is “Dose-Dependent Effect”. For the same compound, in series [6], the basolateral-to-apical permeability (Papp B→A) – broadly, how fast a substance crosses the layer from the basolateral side – was 20.7 ×10⁻⁶ cm/s. Further, in [7], the Tmax – broadly, the time from dosing to the highest level – worked out at 4.8 min. The highest level in series [8] (Cmax) was 1360 ng/mL. Moreover, the mean residence time MRT inf (as a rule, the average time that molecules of a dose stay in the body) in series [9] stood at 91.2 min. Further, the result in series [11] was Active.
